For assay [1], the target named is T1, STING (Homo sapiens, UniProt Q86WV6, G230A/H232R/R293Q/R71H).
T1 construct: host or cells: THP-1 and THP-1 Lucia ISG cells
Nature of the assay: Phosphorylation of IRF3: THP-1 cell ELISA. The assay is classed as cell-based. As to conditions: THP-1 cells, 3 hours incubation, phospho-IRF3 ELISA; read-out: THP-1 CELL P-IRF3 EC50. As to the method:
Phosphorylation of IRF3: THP-1 Cell ELISA
STING activation results in recruitment of TBK1 and phosphorylation of IRF3 transcription factor before induction of type I interferons. THP-1 cells (InvivoGen) were grown in RPMI media plus 2 mM L-glutamine, 10% fetal bovine serum, and 0.5% Pen-Strep. 10^4 cells were seeded in 96-well plates and incubated overnight 37° C., 5% CO2. Compounds serial diluted compounds in media (final 0.5% DMSO) were added to the cells and incubated for an additional 3 hours. After incubation, the plates were centrifuged at 2000 rpm for 5 min. The cells were then lysed in 100 μl RIPA buffer and vortexed for 30 minutes at room temperature. 25 μl of lysate was then transferred to clear polystyrene High Bind plates that had been previously coated with mouse anti-human IRF-3 capture antibody (BD Pharmigen), and allowed to incubate at 4° C. for 16 hours. The plates were then washed and incubated with rabbit anti-phospho-IRF3 detection antibody (Cell Signaling Technologies) for 1.5 hours at room temperature. Finally, an HRP-linked secondary antibody (Cell Signaling Technologies) was added for 30 min before the Glo Substrate Reagent (R&D Systems) was used generate the luminescent signal. The signal was measured using a Perkin-Elmer Envision microplate reader. Data were normalized to “% effect” with a positive control STING agonist that was known to maximize the phosphorylated IRF3 signal and the negative control was DMSO.
A general note: An ELISA detects its analyte on a solid surface through an enzyme-linked reagent.

For assay [2], the target named is T1, STING. Nature of the assay: Interferon-β induction: THP-1 Lucia ISG reporter cell line. In kind it is cell-based. As to conditions: THP-1 Lucia ISG cells, 24 hours incubation, luciferase reporter; read-out: THP-1 Lucia ISG Cells IFN-β EC50. How it is done: Interferon-β Induction: THP-1 ISG Reporter Cell Line
THP-1 Lucia™ ISG cells (InvivoGen) express the secreted luciferase “Lucia” reporter gene under the control of an IRF-inducible composite promotor comprised of five interferon response elements. THP-1 Lucia™ ISG cells were grown in RPMI media plus 2 mM L-glutamine, 10% fetal bovine serum, and 0.5% Pen-Strep. Hygromycin B and Zeocin were present to maintain stable transfection. 10^4 cells were seeded in 96-well plates and incubated overnight 37° C., 5% CO2. 50 μL of serial diluted compounds in media (final 0.5% DMSO) was and incubated for an additional 24 hours. After incubation, the plates were centrifuged at 2000 rpm for 10 min. 50 μl of cell culture supernatant of each well was transferred to a white, opaque 96-well plate. One pouch of QUANTI-Luc™ (InvivoGen) powder was prepared in 25 mL of endotoxin-free water and 100 μL of prepared warm QUANTI-Luc solution were added to each well containing the supernatant. The luminescence signal was measured using a Perkin-Elmer Envision microplate reader. Data were normalized to “% effect” with a positive control STING agonist that was known to maximize the luciferase signal and the negative control DMSO.
A general note: In a reporter assay the amount or activity of a reporter protein is the signal.

Another assay addresses R232-STING (Homo sapiens, UniProt Q86WV6, H232R). Nature of the assay: biochemical.

Structures can show the parent of a compound that is named as a salt.

R232-STING, sequence (Q86WV6 155-341 H232R): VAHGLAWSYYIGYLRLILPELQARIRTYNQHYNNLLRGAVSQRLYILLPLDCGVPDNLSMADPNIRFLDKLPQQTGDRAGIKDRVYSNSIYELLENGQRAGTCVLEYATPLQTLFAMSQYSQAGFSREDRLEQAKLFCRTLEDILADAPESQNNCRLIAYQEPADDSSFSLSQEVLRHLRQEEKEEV
T1 sequence (Q86WV6 whole entry R71H/G230A/H232R/R293Q): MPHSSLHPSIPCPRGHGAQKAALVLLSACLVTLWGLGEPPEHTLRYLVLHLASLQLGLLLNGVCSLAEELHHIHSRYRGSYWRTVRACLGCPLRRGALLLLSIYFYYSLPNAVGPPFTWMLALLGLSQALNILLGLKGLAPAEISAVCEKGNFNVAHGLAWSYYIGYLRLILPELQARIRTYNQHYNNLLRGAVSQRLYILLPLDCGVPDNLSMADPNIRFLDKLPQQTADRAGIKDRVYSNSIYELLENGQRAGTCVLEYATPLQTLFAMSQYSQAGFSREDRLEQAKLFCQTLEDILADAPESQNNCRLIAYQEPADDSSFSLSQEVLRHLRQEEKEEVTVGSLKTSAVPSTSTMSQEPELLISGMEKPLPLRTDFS

As a reminder, the EC50 is the concentration that produces a half-maximal response. A word on the Ki: it is a dissociation constant, usually derived from enzyme kinetics or from competition with a known ligand. A higher Ki goes with a looser hold on the target. Regarding `CCn1nc(C)c(Cl)c1-c1nc(-c2cc(C(N)=O)cc3c2cnn3C)n[nH]1` [Example C04, 4-[5-(4-chloro-1-ethyl-3-methyl-1H-pyrazol-5-yl)-1H-1,2,4-triazol-3-yl]-1-methyl-1H-indazole-6-carboxamide], the results for the concentration giving a half-maximal response (EC50) on STING [1] and at STING [2] were 0.25 µM and 0.24 µM, respectively. This compound also showed a Ki on R232-STING of 0.0133 µM.
For `CCn1nc(C)cc1-c1n[nH]c(-c2cc(C(N)=O)cc3c2cnn3CCCC(=O)O)n1` [YY02, 4-{6-carbamoyl-4-[3-(1-ethyl-3-methyl-1H-pyrazol-5-yl)-1H-1,2,4-triazol-5-yl]-1H-indazol-1-yl}butanoic acid] the same measures were greater than 100 µM, greater than 100 µM and 0.0848 µM.
The like results for `CCn1nc(C)cc1-c1nc(-c2nc(C(N)=O)cc3c2cnn3C)c(CNC)s1` [Example AA01, 4-{2-(1-ethyl-3-methyl-1H-pyrazol-5-yl)-5-[(methylamino)methyl]-1,3-thiazol-4-yl}-1-methyl-1H-pyrazolo[4,3-c]pyridine-6-carboxamide] were, in that order, 11.8 µM, 13.2 µM and 0.134 µM.
For `Cc1nn(CCCN)c(-c2n[nH]c(-c3nc(C(N)=O)cc4c3cnn4C)n2)c1O` [Example AH01, 4-{3-[1-(3-aminopropyl)-4-hydroxy-3-methyl-1H-pyrazol-5-yl]-1H-1,2,4-triazol-5-yl}-1-methyl-1H-pyrazolo[4,3-c]pyridine-6-carboxamide] the same measures were greater than 11.1 µM, 6.25 µM and 0.184 µM.
As for `CCn1nc(C)cc1-c1nnc(-c2cc(C(N)=O)cc3c2cc(C(=O)O)n3C)[nH]1` [YY19, 6-carbamoyl-4-[5-(1-ethyl-3-methyl-1H-pyrazol-5-yl)-4H-1,2,4-triazol-3-yl]-1-methyl-1H-indole-2-carboxylic acid], the half-maximal effective concentration (EC50) at STING [1] and at STING [2] was greater than 100 µM in each case. For the same compound, the Ki at R232-STING was 0.175 µM.
For `CCn1nc(C)cc1-c1n[nH]c(-c2cc(C(N)=O)cc3c2cnn3CCN2CCO[C@@H](C)C2)n1` [YY24, 4-[3-(1-ethyl-3-methyl-1H-pyrazol-5-yl)-1H-1,2,4-triazol-5-yl]-1-{2-[(2S)-2-methylmorpholin-4-yl]ethyl}-1H-indazole-6-carboxamide], the half-maximal effective concentration (EC50) on STING [1] is greater than 33.3 µM; on STING [2], greater than 100 µM. At R232-STING, affinity was put at a Ki of 0.354 µM.
In the case of `CCn1cc(C)c(O)c1-c1nc(-c2nc(C(N)=O)cc3c2cnn3C)cs1` [Example AG01, 4-[2-(1-ethyl-3-hydroxy-4-methyl-1H-pyrrol-2-yl)-1,3-thiazol-4-yl]-1-methyl-1H-pyrazolo[4,3-c]pyridine-6-carboxamide], the half-maximal effective concentration (EC50) at STING [1] amounted to 0.24 µM; on STING [2] it was 0.34 µM. On R232-STING, this compound yielded a Ki of 0.0083 µM.
The like results for `CCn1nc(C)cc1-c1n[nH]c(-c2cc(C(N)=O)cc3c2cnn3CCN2CC3CCC2CO3)n1` (stereo not drawn) [YY25, 4-[3-(1-ethyl-3-methyl-1H-pyrazol-5-yl)-1H-1,2,4-triazol-5-yl]-1-[2-(2-oxa-5-azabicyclo[2.2.2]octan-5-yl)ethyl]-1H-indazole-6-carboxamide] were, in that order, greater than 33.3 µM, greater than 33.3 µM and 0.212 µM.
With `Cc1cc(-c2nc(-c3nc(C(N)=O)cc4c3cnn4C)n(C)n2)n(CCC(=O)O)n1` [Example C09, 3-{5-[5-(6-carbamoyl-1-methyl-1H-pyrazolo[4,3-c]pyridin-4-yl)-1-methyl-1H-1,2,4-triazol-3-yl]-3-methyl-1H-pyrazol-1-yl}propanoic acid], the concentration giving a half-maximal response (EC50) at STING [1] amounted to 15.1 µM; on STING [2] it was 12.3 µM. Affinity on R232-STING was put at a Ki of 0.0014 µM.
In the case of `CCn1nc(C)cc1-c1nnc(-c2cc(C(N)=O)cc3c2cnn3CCN2CCC(C#N)CC2)[nH]1` [YY09, 1-[2-(4-cyanopiperidin-1-yl)ethyl]-4-[5-(1-ethyl-3-methyl-1H-pyrazol-5-yl)-4H-1,2,4-triazol-3-yl]-1H-indazole-6-carboxamide], the EC50 on STING [1] and at STING [2] was greater than 100 µM throughout. Also, the inhibitory constant (Ki) on R232-STING was determined as 0.141 µM.
As to `CCn1nc(C)c(F)c1-c1n[nH]c(-c2nc(C(N)=O)cc3c2cnn3C)n1` [Example C08, 4-[3-(1-ethyl-4-fluoro-3-methyl-1H-pyrazol-5-yl)-1H-1,2,4-triazol-5-yl]-1-methyl-1H-pyrazolo[4,3-c]pyridine-6-carboxamide], the EC50 on STING [1] came out at 0.14 µM; on STING [2], 0.13 µM. The compound also had a Ki at R232-STING of 0.0047 µM.
The like results for `CCn1nc(C)cc1-c1nnc(-c2cc(C(N)=O)cc3c2cnn3C2CC3(CCNC3)C2)[nH]1` (stereo not drawn) [YY17, 1-(6-azaspiro[3.4]octan-2-yl)-4-[5-(1-ethyl-3-methyl-1H-pyrazol-5-yl)-4H-1,2,4-triazol-3-yl]-1H-indazole-6-carboxamide] were, in that order, greater than 100 µM, greater than 100 µM and 0.376 µM.
For `CCn1nc(C)cc1-c1n[nH]c(-c2cc(C(N)=O)cc3c2cnn3CCN2CC(F)C2)n1` [Example M01, 4-[3-(1-ethyl-3-methyl-1H-pyrazol-5-yl)-1H-1,2,4-triazol-5-yl]-1-[2-(3-fluoroazetidin-1-yl)ethyl]-1H-indazole-6-carboxamide trifluoroacetic acid salt] the same measures were 77.3 µM, 81.9 µM and 0.501 µM.
Regarding `CCn1nc(C)cc1-c1n[nH]c(-c2cc(C(N)=O)cc3c(C)n[nH]c23)n1` [Example L01, 7-[3-(1-ethyl-3-methyl-1H-pyrazol-5-yl)-1H-1,2,4-triazol-5-yl]-3-methyl-1H-indazole-5-carboxamide], the concentration for a half-maximal effect (EC50) at STING [1] was determined as 3.09 µM; on STING [2] it was 3.25 µM. Moreover, the Ki at R232-STING stood at 0.0662 µM.
With `CCn1nc(C)c(O)c1-c1nc(-c2nc(C(N)=O)cc3c2cnn3C)c(CN)s1` [Example X01, (4-(6-carbamoyl-1-methyl-1H-pyrazolo[4,3-c]pyridin-4-yl)-2-(1-ethyl-4-hydroxy-3-methyl-1H-pyrazol-5-yl)thiazol-5-yl)methanaminium formate], the half-maximal effective concentration (EC50) on STING [1] was 0.34 µM; on STING [2] it was 0.38 µM. In addition, the Ki at R232-STING is 0.0006 µM.
For `CCn1nc(C)c(Cl)c1-c1nc(-c2nc(C(N)=O)cc3c2cnn3C)c(CN)s1` [YY35, 4-[5-(aminomethyl)-2-(4-chloro-1-ethyl-3-methyl-1H-pyrazol-5-yl)-1,3-thiazol-4-yl]-1-methyl-1H-pyrazolo[4,3-c]pyridine-6-carboxamide] the same measures were greater than 10 µM, greater than 10 µM and 0.108 µM.
The like results for `CCn1nc(C)c(F)c1-c1nc(-c2cc(C(N)=O)cc3c2cnn3CCCN2CCOCC2)n[nH]1` [Example C06, 4-[5-(1-ethyl-4-fluoro-3-methyl-1H-pyrazol-5-yl)-1H-1,2,4-triazol-3-yl]-1-[3-(morpholin-4-yl)propyl]-1H-indazole-6-carboxamide] were, in that order, 96.7 µM, 92.8 µM and 0.277 µM.
The like results for `CCn1nc(C)cc1-c1nc(-c2nc(C(N)=O)cc3c2cnn3C)c(CN)o1` [Example T01, 4-[5-(aminomethyl)-2-(1-ethyl-3-methyl-1H-pyrazol-5-yl)-1,3-oxazol-4-yl]-1-methyl-1H-pyrazolo[4,3-c]pyridine-6-carboxamide] were, in that order, 0.98 µM, 1.46 µM and 0.0277 µM.
As to `CCn1nc(C)cc1-c1n[nH]c(-c2cc(C(N)=O)cc3c2cnn3CCN2CCOC3(CCCC3)C2)n1` [YY28, 4-[3-(1-ethyl-3-methyl-1H-pyrazol-5-yl)-1H-1,2,4-triazol-5-yl]-1-[2-(6-oxa-9-azaspiro[4.5]decan-9-yl)ethyl]-1H-indazole-6-carboxamide], the EC50 at STING [1] and at STING [2] was greater than 33.3 µM throughout. The affinity at R232-STING, expressed as Ki, was 0.142 µM.
In the case of `CCn1nc(C)cc1-c1n[nH]c(-c2cc(C(N)=O)cc3c2cnn3C(C)CN2CCOCC2)n1` (stereo not drawn) [Example D06, 4-[5-(1-ethyl-3-methyl-1H-pyrazol-5-yl)-4H-1,2,4-triazol-3-yl]-1-[1-(morpholin-4-yl)propan-2-yl]-1H-indazole-6-carboxamide], the half-maximal effective concentration (EC50) on STING [1] is 82.9 µM; at STING [2], no less than 100 µM. On R232-STING, this compound returned a Ki of 0.301 µM.

Values taken from US12297190B2, “Modulators of STING (stimulator of interferon genes)” (PFIZER INC., priority 2019, dated 2025).
